Reference: patent US10723723B2, “Substituted bicycle heterocyclic derivatives useful as ROMK channel inhibitors” (BRISTOL-MYERS SQUIBB COMPANY, priority 2016, dated 2020)

Each compound was assayed against hROMK (human Kir1.1) (Homo sapiens (Human), UniProt P48048) (assay: Thallium Flux Assay (FluxOR, CHO T-Rex hROMK stable cell line)). Settings: CHO T-Rex hROMK cells, 10-point concentration response curve; read-out: Human ROMK TH Flux IC50.
Assay type: cell-based
Procedure: Solutions and reagents: Thallium flux assay was performed using FluxOR kit (F10017, Life Technologies). Loading buffer, assay buffer and stimulus buffer were prepared using kit components.
To prepare 10 ml of loading buffer: 10 μl of FluxOR dye (reconstituted in DMSO) was first added to 100 μl of powerload concentrate and this mix along with 100 μl of Probenicid (100×) was then added to 9.79 ml of HBSS. […] Stimulus buffer was composed of 15 mM Tl2SO4, 0.75 mM K2SO4 in FluxOR chloride free buffer (diluted to 1× using deionized water). The final concentration of Tl2SO4 and K2SO4 in the assay plate was 3 mM and 0.15 mM, respectively.
Plating and induction of cells: The CHO T-Rex hROMK (human Kir1.1) stable cell line was maintained in Ham's F12 media supplemented with 10% FBS, 1% Penicillin-Streptomycin, 500 μg/ml Zeocin and 10 μg/ml Blasticidin at 37° C. in a 5% CO2 incubator. […] The cell suspension was centrifuged at 1200 rpm for 5 min. After discarding the supernatant, the cells were resuspended in fresh growth media and cell concentration was determined using a hemocytometer. […] The assay plate was kept at 37° C. in a 5% CO2 incubator.
Assay protocol: On the day of experiment, media was removed and loading buffer was added (30 μl/well) to the assay plate. The cells were incubated in the loading buffer for 30 minutes at 37° C. The loading buffer was then replaced by assay buffer (30 μl/well) followed by addition of test compounds or controls. […] Each well was read for 90 sec at 2 sec interval and the stimulus buffer was added after 20 seconds of baseline recording. The final DMSO concentration was either 0.5 or 1% in the assay plate. Positive and negative controls were defined by addition of DMSO or 3 μM of a standard ROMK inhibitor, respectively, to the wells instead of a test compound.
A 10-point concentration response curve was used to estimate the IC50 value of test compounds.

Chain of hROMK (human Kir1.1) (P48048 whole entry): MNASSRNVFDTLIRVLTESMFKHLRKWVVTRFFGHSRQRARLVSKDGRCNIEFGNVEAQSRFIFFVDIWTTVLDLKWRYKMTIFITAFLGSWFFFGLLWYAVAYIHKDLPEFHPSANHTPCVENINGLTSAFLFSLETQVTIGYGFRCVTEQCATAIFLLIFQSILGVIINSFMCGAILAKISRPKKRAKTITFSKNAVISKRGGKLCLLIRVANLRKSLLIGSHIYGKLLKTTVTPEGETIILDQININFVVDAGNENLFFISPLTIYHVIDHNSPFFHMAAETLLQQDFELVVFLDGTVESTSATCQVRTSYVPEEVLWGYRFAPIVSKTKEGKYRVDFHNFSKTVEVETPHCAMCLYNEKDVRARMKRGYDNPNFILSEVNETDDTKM

Point of comparison: `Cc1c(C(O)CN(Cc2ccc(-c3ccc(C#N)c(F)c3)cc2)Cc2cccnc2)ccc2c1COC2=O` (stereo not shown) [Example 11-I, 3-fluoro-4′-(((2-hydroxy-2-(4-methyl-1-oxo-1,3-dihydroisobenzofuran-5-yl)ethyl)(pyridin-3-ylmethyl)amino)methyl)-[1,1′-biphenyl]-4-carbonitrile], IC50 3700 nM. Against it:
- Cc1c(C(O)CN(C)Cc2ccc(-c3ccc4oc(=O)n(C)c4c3)nc2)ccc2c1COC2=O (single isomer, unassigned) [Example 1-II, 5-(5-(((2-hydroxy-2-(4-methyl-1-oxo-1,3-dihydroisobenzofuran-5-yl)ethyl)(methyl)amino)methyl)pyridin-2-yl)-3-methylbenzo[d]oxazol-2(3H)-one] — 4.5-fold lower, 830 nM
- CN(Cc1ccc(-c2ccc3oc(=O)n(C)c3c2)nc1)CC(O)c1ccc2oc(=O)n(C)c2c1 (single isomer, unassigned) [Example 5-I] — 2.5-fold lower, 1500 nM
- Cc1c(C(O)CNCc2ccc(-c3ccc(C#N)c(F)c3)cc2)ccc2c1COC2=O (single isomer, unassigned) [Example 10-II, 3-fluoro-4′-(((2-hydroxy-2-(4-methyl-1-oxo-1,3-dihydroisobenzofuran-5-yl)ethyl)amino)methyl)-[1,1′-biphenyl]-4-carbonitrile] — 26-fold lower, 140 nM
- Cc1c(C(O)CN(C)Cc2ccc(-n3cc(C#N)c4ccccc43)cc2)ccc2c1COC2=O (single isomer, unassigned) [Example 12-II, 1-(4-(((2-hydroxy-2-(4-methyl-1-oxo-1,3-dihydroisobenzofuran-5-yl)ethyl)(methyl)amino)methyl)phenyl)-1H-indole-3-carbonitrile] — 7.1-fold lower, 520 nM
- Cc1c(C(CO)N(C)Cc2cnc(-c3ccc4oc(=O)n(C)c4c3)nc2)ccc2c1COC2=O (single isomer, unassigned) [Example 14-I, 5-(5-(((2-hydroxy-1-(4-methyl-1-oxo-1,3-dihydroisobenzofuran-5-yl)ethyl)(methyl)amino)methyl)pyrimidin-2-yl)-3-methylbenzo[d]oxazol-2(3H)-one] — within 1.5-fold, 4000 nM
- Cc1c(C(CO)NCCc2cccc(-c3ccc(C#N)c(F)c3)c2)ccc2c1COC2=O (single isomer, unassigned) [Example 15-I, 3-fluoro-3′-(2-((2-hydroxy-1-(4-methyl-1-oxo-1,3-dihydroisobenzofuran-5-yl)ethyl)amino)ethy)-[1,1′-biphenyl]-4-carbonitrile] — 1.9-fold lower, 2000 nM
- Cc1c(C(CO)NCCc2cccc(-c3ccc(C#N)c(F)c3)c2)ccc2c1COC2=O (single isomer, unassigned) [Example 15-II, 3-fluoro-3′-(2-((2-hydroxy-1-(4-methyl-1-oxo-1,3-dihydroisobenzofuran-5-yl)ethyl)amino)ethy)-[1,1′-biphenyl]-4-carbonitrile] — 2.5-fold lower, 1500 nM
- Cc1c(C(O)CNCc2ccc3c(cnn3-c3ccc(F)cc3)c2)ccc2c1COC2=O (single isomer, unassigned) [Example 16-I, 5-(2-(((1-(4-fluorophenyl)-1H-indazol-5-yl)methyl)amino)-1-hydroxyethyl)-4-methylisobenzofuran-1(3H)-one] — 7.7-fold lower, 480 nM
- Cc1c(C(O)CN(C)Cc2cnc(-n3ncc4ncccc43)nc2)ccc2c1COC2=O (single isomer, unassigned) [Example 17-I, 5-(2-(((2-(1H-pyrazolo[4,3-b]pyridin-1-yl)pyrimidin-5-yl)methyl)(mehyl)amino)-1-hydroxyethyl)-4-methylisobenzofuran-1(3H)-one] — 2.5-fold lower, 1500 nM
- Cc1c(C(O)CN(C)Cc2cnc(-n3ncc4c(C#N)cccc43)nc2)ccc2c1COC2=O (single isomer, unassigned) [Example 18-I, 1-(5-(((2-hydroxy-2-(4-methyl-1-oxo-1,3-dihydroisobenzofuran-5-yl)ethyl)(methyl)amino)methyl)pyrimidin-2-yl)-1H-indazole-4-carbonitrile] — 16-fold lower, 230 nM
- CN(Cc1ccc(-c2ccc(C#N)c(F)c2)nc1)CC(O)c1ccc2oc(=O)n(C)c2c1 (single isomer, unassigned) [Example 24-I, 2-fluoro-4-(5-(((2-hydroxy-2-(3-methyl-2-oxo-2,3-dihydrobenzo[d]oxazol-5-yl)ethyl)(methyl)amino)methyl)pyridin-2-yl)benzonitrile] — 1.5-fold lower, 2400 nM
- CN(Cc1ccc(-c2ccc(C#N)c(F)c2)nc1)CC(O)c1ccc2oc(=O)n(C)c2c1 (single isomer, unassigned) [Example 24-II, 2-fluoro-4-(5-(((2-hydroxy-2-(3-methyl-2-oxo-2,3-dihydrobenzo[d]oxazol-5-yl)ethyl)(methyl)amino)methyl)pyridin-2-yl)benzonitrile] — 1.5-fold lower, 2400 nM
- Cc1c(C(O)CN(C)Cc2ccc(-n3ccc4c(C#N)cccc43)nc2)ccc2c1COC2=O (single isomer, unassigned) [Example 25-I, 1-(5-(((2-hydroxy-2-(4-methyl-1-oxo-1,3-dihydroisobenzofuran-5-yl)ethyl)(methyl)amino)methyl)pyridin-2-yl)-1H-indole-4-carbonitrile] — 15-fold lower, 240 nM
- Cc1c(C(O)CN(C)Cc2ccc(-n3ccc4c(C#N)cccc43)nc2)ccc2c1COC2=O (single isomer, unassigned) [Example 25-II, 1-(5-(((2-hydroxy-2-(4-methyl-1-oxo-1,3-dihydroisobenzofuran-5-yl)ethyl)(methyl)amino)methyl)pyridin-2-yl)-1H-indole-4-carbonitrile] — 7.1-fold lower, 520 nM
- Cc1c(C(O)CN(C)Cc2ccc(-c3ccc(C#N)c(F)c3)cc2)ccc2c1COC2=O (single isomer, unassigned) [Example 27-II, 3-fluoro-4′-(((2-hydroxy-2-(4-methyl-1-oxo-1,3-dihydroisobenzofuran-5-yl)ethyl)(methyl)amino)methyl)-[1,1′-biphenyl]-4-carbonitrile] — 15-fold lower, 240 nM
- Cc1c(C(O)CN(C)Cc2ccc(-n3ccc4c(C#N)cccc43)cc2)ccc2c1COC2=O (single isomer, unassigned) [Example 28-II, 1-(4-(((2-hydroxy-2-(4-methyl-1-oxo-1,3-dihydroisobenzofuran-5-yl)ethyl)(methyl)amino)methyl)phenyl)-1H-indole-4-carbonitrile] — 9.5-fold lower, 390 nM
- Cc1c(C(O)CN(C)Cc2ccc(-n3ccc4cc(C#N)ccc43)cc2)ccc2c1COC2=O (single isomer, unassigned) [Example 30-II, 1-(4-(((2-hydroxy-2-(4-methyl-1-oxo-1,3-dihydroisobenzofuran-5-yl)ethyl)(methyl)amino)methyl)phenyl)-1H-indole-5-carbonitrile] — 3.1-fold lower, 1200 nM
- Cc1cc(-c2ccc(CN(C)CC(O)c3ccc4c(c3C)COC4=O)cc2)ncc1C#N (single isomer, unassigned) [Example 31-II, 6-(4-(((2-hydroxy-2-(4-methyl-1-oxo-1,3-dihydroisobenzofuran-5-yl)ethyl)(methyl)amino)methyl)phenyl)-4-methylnicotinonitrile] — 10-fold lower, 370 nM
- Cc1c(C(O)CN(C)Cc2ccc(-n3ccc4cc(C#N)ccc43)cc2)ccc2c1COC2=O (single isomer, unassigned) [Example 32-I, 1-(4-(((2-hydroxy-2-(4-methyl-1-oxo-1,3-dihydroisobenzofuran-5-yl)ethyl)(methyl)amino)methyl)phenyl)-1H-indole-5-carbonitrile] — 7-fold lower, 530 nM
- Cc1cc(-n2ccc3cc(CN(C)CC(O)c4ccc5c(c4C)COC5=O)ccc32)ncc1C#N (single isomer, unassigned) [Example 33-I, 6-(5-(((2-hydroxy-2-(4-methyl-1-oxo-1,3-dihydroisobenzofuran-5-yl)ethyl)(methyl)amino)methyl)-1H-indol-1-yl)-4-methylnicotinonitrile] — within 1.5-fold, 3300 nM
- CC(=O)N(Cc1ccc(-c2ccc(C#N)c(F)c2)cc1)CC(O)c1ccc2c(c1C)COC2=O (single isomer, unassigned) [Example 34-I, N-((4′-cyano-3′-fluoro-[1,1′-biphenyl]-4-yl)methyl)-N-(2-hydroxy-2-(4-methyl-1-oxo-1,3-dihydroisobenzofuran-5-yl)ethyl)acetamide] — 4.7-fold lower, 780 nM
- Cc1cc(-n2ncc(C(C)NC[C@H](O)c3ccc4c(c3C)COC4=O)n2)ncc1C#N (single isomer, unassigned) [Example 59] — 6.9-fold lower, 540 nM
- Cc1cn(-c2ncc(CNC[C@H](O)c3ccc4c(c3C)COC4=O)cc2F)cn1 (single isomer, unassigned) [Example 83] — 80-fold lower, 46 nM
- Cc1c([C@@H](O)CN(C)Cc2ccc(-c3ccc4oc(=O)n(C)c4c3)cn2)ccc2c1COC2=O (single isomer, unassigned) [Example 84] — 45-fold lower, 82 nM
- Cc1cc(-n2cc(CNCC(C)(O)c3ccc4c(c3C)COC4=O)cn2)ncc1C#N (single isomer, unassigned) [Example 170-I, 6-(4-(((2-hydroxy-2-(4-methyl-1-oxo-1,3-dihydroisobenzofuran-5-yl)propyl)amino)methyl)-1H-pyrazol-1-yl)-4-methylnicotinonitrile] — 23-fold lower, 160 nM
- Cc1cc(-n2cc(CNCC(O)c3ccc4c(c3C)C(C)OC4=O)cn2)ncc1C#N (single isomer, unassigned) [Example 172-I, 6-(4-(((2-(3,4-dimethyl-1-oxo-1,3-dihydroisobenzofuran-5-yl)-2-hydroxyethyl)amino)meth-yl)-1H-pyrazol-1-yl)-4-methylnicotinonitrile] — 4.4-fold lower, 850 nM
- Cc1cc(-n2cc(CNCC(O)c3ccc4c(c3C)C(C)OC4=O)cn2)ncc1C#N (single isomer, unassigned) [Example 172-II, 6-(4-(((2-(3,4-dimethyl-1-oxo-1,3-dihydroisobenzofuran-5-yl)-2-hydroxyethyl)amino)meth-yl)-1H-pyrazol-1-yl)-4-methylnicotinonitrile] — 2.1-fold lower, 1800 nM
- Cc1c(C(CO)N(C)Cc2cnc(-n3ncc4c(C#N)cccc43)nc2)ccc2c1COC2=O (stereo not shown) [Example 2-I] — 1.9-fold lower, 1900 nM
- Cc1c(C(O)CN(C)Cc2cnc(-c3ccc4oc(=O)n(C)c4c3)nc2)ccc2c1COC2=O (stereo not shown) [Example 9-I] — 13-fold lower, 290 nM
- CN(Cc1ccc(-c2ccc(C#N)c(F)c2)cc1)Cc1ccc2c(c1)COC2=O [Example 29, 3-fluoro-4′-((methyl((1-oxo-1,3-dihydroisobenzofuran-5-yl)methyl)amino)methyl)-[1,1′-biphenyl]-4-carbonitrile] — within 1.5-fold, 3300 nM
